Laboratory results published in PMC4151564 (Journal of medicinal chemistry, 2011).

How the values were obtained:
[1] = tested on: Topo-IIα; conditions: cited from earlier work
[2] = molecular target: T1, eukaryotic topoisomerase IIα (Homo sapiens, UniProt P11388); test: Gel-based Topo-IIα inhibition mechanism assay; format: biochemical; conditions: 500 μM inhibitor, 4 units enzyme
[3] = molecular target: T1, eukaryotic topoisomerase IIα; test: Topo-IIα inhibition, agarose gel supercoiled DNA relaxation assay; format: biochemical; conditions: for Topo-IIα inhibition at 100 μM: 100 μM TSC ligand, gel Figure 1B
[4] = molecular target: T1, eukaryotic topoisomerase IIα; conditions: read-out: Topo-IIα inhibition IC50; literature range; cited from earlier work

T1 sequence (P11388 whole entry): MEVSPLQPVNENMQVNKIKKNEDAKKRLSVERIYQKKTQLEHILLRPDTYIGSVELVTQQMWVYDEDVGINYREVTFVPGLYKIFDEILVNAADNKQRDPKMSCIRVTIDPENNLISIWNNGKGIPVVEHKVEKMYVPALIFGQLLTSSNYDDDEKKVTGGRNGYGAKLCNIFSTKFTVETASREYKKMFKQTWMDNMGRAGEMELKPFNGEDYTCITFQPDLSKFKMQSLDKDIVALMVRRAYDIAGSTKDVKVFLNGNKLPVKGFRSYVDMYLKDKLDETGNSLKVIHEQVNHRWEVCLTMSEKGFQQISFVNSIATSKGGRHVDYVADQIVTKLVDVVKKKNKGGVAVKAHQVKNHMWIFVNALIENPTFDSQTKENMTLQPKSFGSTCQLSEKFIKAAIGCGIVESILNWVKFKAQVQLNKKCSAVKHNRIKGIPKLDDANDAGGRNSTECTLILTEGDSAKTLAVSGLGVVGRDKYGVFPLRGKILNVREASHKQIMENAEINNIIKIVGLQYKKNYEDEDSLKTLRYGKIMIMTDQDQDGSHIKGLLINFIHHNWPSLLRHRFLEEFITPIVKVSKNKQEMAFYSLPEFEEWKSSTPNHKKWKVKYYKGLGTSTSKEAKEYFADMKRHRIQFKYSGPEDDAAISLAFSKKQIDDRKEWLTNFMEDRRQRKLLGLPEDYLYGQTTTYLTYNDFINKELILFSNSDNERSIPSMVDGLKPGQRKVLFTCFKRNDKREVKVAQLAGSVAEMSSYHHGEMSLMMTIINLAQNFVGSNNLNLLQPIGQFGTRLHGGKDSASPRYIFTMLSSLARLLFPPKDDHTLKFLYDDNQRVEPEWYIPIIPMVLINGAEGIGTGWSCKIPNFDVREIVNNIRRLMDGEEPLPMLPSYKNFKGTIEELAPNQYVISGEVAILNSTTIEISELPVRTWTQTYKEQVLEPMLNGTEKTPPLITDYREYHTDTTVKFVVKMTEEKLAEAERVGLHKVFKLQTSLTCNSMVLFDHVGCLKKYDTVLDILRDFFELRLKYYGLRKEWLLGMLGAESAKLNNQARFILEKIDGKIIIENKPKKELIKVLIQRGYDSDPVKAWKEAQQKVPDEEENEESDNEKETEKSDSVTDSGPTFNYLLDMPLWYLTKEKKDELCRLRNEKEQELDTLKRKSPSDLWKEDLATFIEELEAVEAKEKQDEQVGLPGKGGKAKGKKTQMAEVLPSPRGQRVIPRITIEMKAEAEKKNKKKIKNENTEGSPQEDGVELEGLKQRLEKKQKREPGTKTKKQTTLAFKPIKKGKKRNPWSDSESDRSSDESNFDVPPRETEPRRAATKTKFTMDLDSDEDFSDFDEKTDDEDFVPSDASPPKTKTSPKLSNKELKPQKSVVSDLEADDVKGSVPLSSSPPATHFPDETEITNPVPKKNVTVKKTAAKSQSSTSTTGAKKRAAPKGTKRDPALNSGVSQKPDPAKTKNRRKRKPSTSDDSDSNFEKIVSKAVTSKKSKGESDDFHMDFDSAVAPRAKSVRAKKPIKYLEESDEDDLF

Compound	Topo-IIα inhibition mechanism (formation of linear DNA) [2]	Topo-IIα inhibition at 100 μM [3]	other results
CN(C)C(=S)NN=C(c1ccccn1)c1ccccn1 [Dp44mT, di-2-pyridylketone-4,4-dimethylthiosemicarbazone]	–	–	concentration at which in vivo Topo-IIα inhibition was found [1]: < 1 µM
COc1cc(NS(C)(=O)=O)ccc1Nc1c2ccccc2nc2ccccc12 [m-AMSA]	produce discrete bands of linear DNA	–	–
[Cl][Cu][Cl] [CuCl2]	–	–	Topo-IIα inhibition, control experiment ([3]; any concentrations below 500 μM): does not inhibit the enzyme
COc1cccc2c1C(=O)c1c(O)c3c(c(O)c1C2=O)C[C@@](O)(C(=O)CO)C[C@@H]3O[C@H]1C[C@H](N)[C@H](O)[C@H](C)O1 [doxorubicin]	–	–	IC50 [4]: 1 to 5 µM
O=C1NC(=S)NC(=O)C1C(=O)Nc1ccccc1 [merbarone]	–	–	IC50 [4]: 40 to 50 µM
O=c1c(-c2ccc(O)cc2)coc2cc(O)cc(O)c12 [genistein]	produce discrete bands of linear DNA	–	–
2-Formylpyridine-N^4-allylthiosemicarbazonatochlorocopper (II) [Cu(Fp4alT)Cl]	completely inhibits Topo-IIα without promoting the formation of linear DNA products	–	–
CCNC(=S)N/N=C(\C)c1ccccn1 [HAp4eT, (E)-N-Ethyl-2-(1-(pyridin-2-yl)ethylidene)hydrazinecarbothioamide]	–	displaying any degree of inhibition	–
Cc1c2ccncc2c(C)c2c1[nH]c1ccccc12 [ellipticine]	produce discrete bands of linear DNA	–	–
CNC(=S)N/N=C/c1ccccn1 [HFp4mT, (E)-N-Methyl-2-(pyridin-2-ylmethylene) hydrazinecarbothioamide]	–	displaying any degree of inhibition	–
CCNC(=S)N/N=C/c1ccccn1 [HFp4eT, (E)-N-Ethyl-2-(pyridin-2-ylmethylene)hydrazinecarbothioamide]	–	displaying any degree of inhibition	–
CNC(=S)N/N=C(\C)c1ccccn1 [HAp4mT, (E)-N-Methyl-2-(1-(pyridin-2-yl)ethylidene)hydrazinecarbothioamide]	–	displaying any degree of inhibition	–
